Laboratory results from PubChem BioAssay (NCI).
Where “and” joins values, the source holds several entries; their conditions need not be identical. Equal entries are not always repeated.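 A five-concentration, 48-hour dose response in 96-well plates underlies each endpoint, interpolated linearly between surrounding concentrations. GI50 marks 50% less growth. TGI: total growth inhibition.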

What was measured:
Assay in all cases: NCI anticancer screen, dose series, 48 h
SW-620 colon = system: SW-620 colon
OVCAR-5 ovarian = system: OVCAR-5 ovarian
MOLT-4 leukemia = system: MOLT-4 leukemia
IGROV1 ovarian = system: IGROV1 ovarian
RXF 393 renal = system: RXF 393 renal
SF-268 CNS = system: SF-268 CNS
CAKI-1 renal = system: CAKI-1 renal
NCI/ADR-RES ovarian = system: NCI/ADR-RES ovarian
HOP-62 NSCLC = system: HOP-62 NSCLC
HT29 colon = system: HT29 colon

Compound | GI50 (SW-620 colon) | TGI (SW-620 colon) | GI50 (OVCAR-5 ovarian) | TGI (OVCAR-5 ovarian) | GI50 (MOLT-4 leukemia) | TGI (MOLT-4 leukemia) | GI50 (IGROV1 ovarian) | TGI (IGROV1 ovarian) | GI50 (RXF 393 renal) | TGI (RXF 393 renal) | GI50 (SF-268 CNS) | TGI (SF-268 CNS) | GI50 (CAKI-1 renal) | TGI (CAKI-1 renal) | GI50 (NCI/ADR-RES ovarian) | TGI (NCI/ADR-RES ovarian) | TGI (HOP-62 NSCLC) | TGI (HT29 colon) | GI50 (HOP-62 NSCLC) | GI50 (HT29 colon)
CN1CCN(c2ccc3nc(-c4ccc(OCCCN5C(=O)c6cccc7cccc(c67)C5=O)cc4)[nH]c3c2)CC1 | 1.83 µM | 3.44 µM | 1.89 µM | 3.38 µM | 2.06 µM | 5.05 µM | 21.8 µM | 66.1 µM | 10 µM | 41.7 µM | 26.3 µM | 99.8 µM | 18.8 µM | > 100 µM | 2.09 µM | 4.7 µM |  |  |  | 
Cc1c2cc[n+](C)cc2c(COC2OC(CO)C(O)C2O)c2c3ccccc3n(C)c12 (stereo not given) |  | > 100 µM |  | > 100 µM |  | > 100 µM |  | > 100 µM |  | > 100 µM |  | > 97 µM |  | > 100 µM |  | > 100 µM | > 74.2 µM | > 100 µM |  | 
NC(=O)c1cc2ccccc2c(N=Nc2ccccc2)c1O |  | > 100 µM |  | > 100 µM |  | > 100 µM |  | > 100 µM |  | > 100 µM |  | > 100 µM |  | 69.9 µM |  | > 100 µM | > 100 µM | > 100 µM |  | 
CC(=O)OC1CC2(O)C(CCC3(C)C(c4ccc(=O)oc4)CCC32O)C2(C)CCC(O)C=C12 (stereo not given) | 0.01 µM | 0.17 µM and 0.0561 µM | 0.0738 µM | 0.277 µM and 0.26 µM |  | 0.0054 µM | 0.0375 µM | 0.351 µM and 0.242 µM | 0.00624 µM | 0.027 µM and 0.0399 µM | 0.00796 µM | 0.149 µM and 0.0437 µM | 0.015 µM | 0.124 µM and 0.0425 µM | 0.0375 µM | 0.143 µM and 0.255 µM | 0.105 µM and 0.048 µM |  | 0.0123 µM | 0.0592 µM
CCC1=C(C)C2=NC1=CC1=NC(=C(CC)/C1=C/O)C=C1N=C3C(=C1C)C(=O)C(C(=O)OC)C3=C1NC(=C2)C(C)C1CCC(=O)OC (stereo not given) |  | > 100 µM |  | > 100 µM |  | > 100 µM |  | > 100 µM |  | > 100 µM |  | > 100 µM |  | > 100 µM |  |  | > 100 µM | > 100 µM |  | 
COc1cccc2c1C(=O)c1c(O)c3c(c(O)c1C2=O)C[C@@](O)(C(C)=O)C[C@@H]3OC1CC(N)C(O)C(C)O1 (stereo not given in full) |  |  |  |  |  |  | < 0.0374 µM |  | 0.0602 µM |  | 0.0183 µM |  |  |  |  |  |  |  | < 0.0127 µM | 0.0246 µM
CC(=O)O[C@H]1C(=O)[C@]2(C)[C@@H](OC(=O)OCC(O)CO)C[C@H]3OC[C@@]3(OC(C)=O)[C@H]2[C@H](OC(=O)c2ccccc2)[C@]2(O)C[C@H](OC(=O)[C@H](O)[C@@H](NC(=O)c3ccccc3)c3ccccc3)C(C)=C1C2(C)C (stereo not given in full) |  | 22.1 µM |  | 20.9 µM |  | 31.3 µM |  | > 57.7 µM |  | 1.04 µM |  | > 67.8 µM |  | > 68.8 µM |  | 4.94 µM | 13.7 µM |  |  | 
CCP(=O)(CC)C(Cl)(Cl)C(=O)NC |  | > 100 µM |  | > 100 µM |  | > 100 µM |  | > 100 µM |  |  |  |  |  | > 100 µM |  | > 100 µM | > 100 µM | > 100 µM |  | 
O=c1c(-c2ccccc2)c[nH]c2cc([N+](=O)[O-])c(/C(Cl)=C/c3ccccc3)cc12 |  | 26.8 µM |  | > 59.5 µM |  | 24 µM |  | > 38.6 µM |  | 29.5 µM |  | 16.7 µM |  | 87.7 µM |  | 25.5 µM | 52 µM | > 51.6 µM |  | 
Cc1ccc(S(=O)(=O)OC2CN3CCC2CC3)cc1 (stereo not given) |  | > 100 µM |  | > 100 µM |  | > 100 µM |  | > 100 µM |  | > 100 µM |  | > 100 µM |  | > 100 µM |  | > 100 µM | > 100 µM | > 100 µM |  | 
CC(C)(C)CC(C)(C)Cc1ccc(OCCOCC[N+](C)(C)Cc2ccccc2)cc1 | 1.64 µM | 3.35 µM | 3.86 µM | 15.8 µM |  |  | 1.33 µM | 2.86 µM | 1.42 µM | 3 µM | 1.59 µM | 3.19 µM | 3.47 µM | 13.8 µM | 21.5 µM | 58.6 µM | 6.73 µM | 3.1 µM | 2.31 µM | 1.5 µM
N#Cc1ccc(Nc2nc3nc[nH]c3c(=O)[nH]2)cc1 |  | > 100 µM |  | > 100 µM |  | > 100 µM |  | > 100 µM |  |  |  | > 100 µM |  | > 100 µM |  | > 100 µM | > 100 µM | > 100 µM |  | 
CCCCN(CCCC)CC(=O)c1ccc2cc(Cl)c3ccccc3c2c1 |  | > 100 µM |  | > 100 µM |  | > 100 µM |  | 62 µM |  | 46.2 µM |  | 42.1 µM |  | 78.6 µM |  | > 100 µM | > 100 µM | 46 µM |  | 
O=C(CCN1CCCC1)Nc1ccc2c(NCCCCc3ccccc3)c3ccccc3nc2c1 | 0.534 µM | 1.86 µM | 1.38 µM | 2.71 µM |  |  |  |  | 0.802 µM | 2.18 µM |  |  | 9.49 µM | 22.3 µM | 11.3 µM | 59.4 µM |  |  |  | 
CCOC(=O)c1c(NC(=S)NCc2ccccc2)sc2c1CCN(C)C2 |  |  |  | > 100 µM |  | 51 µM |  | > 100 µM |  |  |  | > 100 µM |  | > 100 µM |  | > 100 µM | > 100 µM | > 100 µM |  | 
